Reference: patent US20260297070A1, “CYCLIC [COMPOUND LEFT OUT] WRN INHIBITORS” (Nimbus Wadjet, Inc., priority 2023, published 2026)

Target: T1, human Werner helicase (WRN-BV08, Uniprot Q14191, amino acids 517-1235 with L1074F point mutation) (Homo sapiens, UniProt Q14191, L1074F)
T1 construct: Uniprot Q14191, amino acids 517-1235 with L1074F point mutation; TEV-cleavable 8×His (C, cleaved yes); made in house; host or cells: Sf9 insect cells (baculovirus)
Test: WRN (BV08) ADP-Glo Assay
Assay type: biochemical
Conditions: 0.15 nM WRN, 5 μM ATP, 0.1 nM DNA duplex, 15 min preincubation, 60 min at 25° C., pH 7.5, 1% DMSO; read-out: ADP-Glo_hWRN_IC50
Procedure, shortened: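 0.15 nM WRN (aa 517-1235, L1074F, Sf9-expressed, tag cleaved) preincubated 15 min at 25 °C with compound, then 5 μM ATP and 0.1 nM DNA duplex added for 60 min. Buffer: 20 mM Bicine pH 7.5, 1 mM MgCl2, 10 mM KCl, 1 mM TCEP; 1% DMSO. ADP-Glo luminescence; IC50 by 4-parameter fit.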

T1 sequence (Q14191 with tags, fused parts or gaps L1074F limits assumed): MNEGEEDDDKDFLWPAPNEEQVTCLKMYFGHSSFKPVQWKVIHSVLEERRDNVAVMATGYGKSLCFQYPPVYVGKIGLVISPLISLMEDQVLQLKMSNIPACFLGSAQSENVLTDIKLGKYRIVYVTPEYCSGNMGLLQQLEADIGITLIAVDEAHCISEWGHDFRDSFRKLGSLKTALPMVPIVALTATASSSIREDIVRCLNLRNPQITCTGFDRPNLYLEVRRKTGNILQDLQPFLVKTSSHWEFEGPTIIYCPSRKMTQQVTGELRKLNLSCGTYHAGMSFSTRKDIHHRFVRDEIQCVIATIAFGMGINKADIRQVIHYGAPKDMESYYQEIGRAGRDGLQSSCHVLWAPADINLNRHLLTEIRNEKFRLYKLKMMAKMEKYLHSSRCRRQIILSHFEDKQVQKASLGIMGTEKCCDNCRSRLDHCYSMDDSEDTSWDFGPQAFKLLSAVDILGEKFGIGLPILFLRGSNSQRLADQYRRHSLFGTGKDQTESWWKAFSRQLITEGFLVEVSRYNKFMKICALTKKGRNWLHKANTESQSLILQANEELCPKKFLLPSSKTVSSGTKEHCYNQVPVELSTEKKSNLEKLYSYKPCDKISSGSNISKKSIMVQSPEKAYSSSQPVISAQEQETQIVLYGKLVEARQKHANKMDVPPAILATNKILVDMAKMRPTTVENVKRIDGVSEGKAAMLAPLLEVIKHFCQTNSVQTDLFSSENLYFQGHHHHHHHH

IC50	Compound
> 50 µM	O=C(Cc1coc(-c2ccc(F)cc2)n1)N(Cc1ccncc1)C1C=CS(=O)(=O)C1 (stereo not shown) [I-543, N-(1,1-dioxo-2,3-dihydro-1lambda6-thiophen-3-yl)-2-[2-(4-fluorophenyl)-1,3-oxazol-4-yl]-N-[(pyridin-4-yl)methyl]acetamide]
> 50 µM	COc1cc(CN(C(=O)C(c2ccc(-c3ccc(F)c(F)c3)cc2F)n2cnnn2)[C@@H]2C=CS(=O)(=O)C2)ccn1 (stereo partly drawn) [I-734, N-[(3R)-1,1-dioxo-2,3-dihydro-1lambda6-thiophen-3-yl]-N-[(2-methoxypyridin-4-yl)methyl]-2-(1H-1,2,3,4-tetrazol-1-yl)-2-{3,3′,4′-trifluoro-[1,1′-biphenyl]-4-yl}acetamide]
10 to 50 µM	O=C(Cc1ccc(-n2cccc2)c(F)c1)N(Cc1ccncc1)C1C=CS(=O)(=O)C1 (stereo not shown) [I-327, N-(1,1-dioxo-2,3-dihydro-1lambda6-thiophen-3-yl)-2-[3-fluoro-4-(1H-pyrrol-1-yl)phenyl]-N-[(pyridin-4-yl)methyl]acetamide]
> 50 µM	O=C(Cc1ccc(-n2cccc2)cc1)N(Cc1ccccn1)C1C=CS(=O)(=O)C1 (stereo not shown) [I-467, N-(1,1-dioxo-2,3-dihydro-1lambda6-thiophen-3-yl)-N-[(pyridin-2-yl)methyl]-2-[4-(1H-pyrrol-1-yl)phenyl]acetamide]
5 to 10 µM	O=C(Cc1ccc(-n2cccc2)cc1)N(Cc1ccccc1F)C1C=CS(=O)(=O)C1 (stereo not shown) [I-257, N-(1,1-dioxo-2,3-dihydro-1lambda6-thiophen-3-yl)-N-[(2-fluorophenyl)methyl]-2-[4-(1H-pyrrol-1-yl)phenyl]acetamide]
10 to 50 µM	COc1ccc(CN(C(=O)Cc2ccc(-n3cccc3)cc2)C2C=CS(=O)(=O)C2)cc1OC (stereo not shown) [I-280, N-[(3,4-dimethoxyphenyl)methyl]-N-(1,1-dioxo-2,3-dihydro-1lambda6-thiophen-3-yl)-2-[4-(1H-pyrrol-1-yl)phenyl]acetamide]
0.5 to 5 µM	O=C(Cc1ccc(-n2cccc2)cc1)N(Cc1ccc(Br)cc1)C1C=CS(=O)(=O)C1 (stereo not shown) [I-163, N-[(4-bromophenyl)methyl]-N-(1,1-dioxo-2,3-dihydro-1lambda6-thiophen-3-yl)-2-[4-(1H-pyrrol-1-yl)phenyl]acetamide]
> 50 µM	CC(C)(O)c1cc(CN(C(=O)Cc2ccc(-n3cccc3)cc2F)C2C=CS(=O)(=O)C2)ccn1 (single isomer, unassigned) [I-469]
> 50 µM	COc1cc(CN(C(=O)Cc2ccc(S(F)(F)(F)(F)F)cc2)[C@H]2C=CS(=O)(=O)C2)ccn1 [I-311, N-[(3S)-1,1-dioxo-2,3-dihydro-1lambda6-thiophen-3-yl]-N-[(2-methoxypyridin-4-yl)methyl]-2-[4-(pentafluoro-lambda6-sulfanyl)phenyl]acetamide]
> 50 µM	COc1cc(CN(C(=O)C(c2ccc(-c3ccc(F)c(F)c3)cc2F)n2cc(C(F)F)cn2)[C@@H]2C=CS(=O)(=O)C2)ccn1 (single isomer, unassigned) [I-711, (2R*)-2-[4-(difluoromethyl)-1H-pyrazol-1-yl]-N-[(3R)-1,1-dioxo-2,3-dihydro-1lambda6-thiophen-3-yl]-N-[(2-methoxypyridin-4-yl)methyl]-2-{3,3′,4′-trifluoro-[1,1′-biphenyl]-4-yl}acetamide]
> 50 µM	O=C(Cn1cc(C2CCOC2)cn1)N(Cc1ccncc1)C1C=CS(=O)(=O)C1 (stereo not shown) [I-407, N-(1,1-dioxo-2,3-dihydro-1lambda6-thiophen-3-yl)-2-[4-(oxolan-3-yl)-1H-pyrazol-1-yl]-N-[(pyridin-4-yl)methyl]acetamide]
> 50 µM	CN(C)C(=O)C(C(=O)N(Cc1ccncc1)C1C=CS(=O)(=O)C1)c1ccc(-c2ccc(F)cc2)cc1 (single isomer, unassigned) [I-362, (2R**)-N′-[(3R*)-1,1-dioxo-2,3-dihydro-1lambda6-thiophen-3-yl]-2-{4′-fluoro-[1,1′-biphenyl]-4-yl}-N,N-dimethyl-N′-[(pyridin-4-yl)methyl]propanediamide]
> 50 µM	O=C(Cc1ccc(S(F)(F)(F)(F)F)cc1)N(Cc1nc(C(F)F)cs1)C1C=CS(=O)(=O)C1 (stereo not shown) [I-729, N-{[4-(difluoromethyl)-1,3-thiazol-2-yl]methyl}-N-(1,1-dioxo-2,3-dihydro-1lambda6-thiophen-3-yl)-2-[4-(pentafluoro-lambda6-sulfanyl)phenyl]acetamide]
10 to 50 µM	COc1cc(CN(C(=O)C(c2ccc(-c3ccc(F)c(F)c3)cc2F)n2ncc3ccncc32)[C@@H]2C=CS(=O)(=O)C2)ccn1 (stereo partly drawn) [I-751, N-[(3R)-1,1-dioxo-2,3-dihydro-1lambda6-thiophen-3-yl]-N-[(2-methoxypyridin-4-yl)methyl]-2-{1H-pyrazolo[3,4-c]pyridin-1-yl}-2-{3,3′,4′-trifluoro-[1,1′-biphenyl]-4-yl}acetamide]
> 50 µM	N#Cc1cc(-n2cccc2)ccc1CC(=O)N(Cc1ccncc1)C1C=CS(=O)(=O)C1 (stereo not shown) [I-468, 2-[2-cyano-4-(1H-pyrrol-1-yl)phenyl]-N-(1,1-dioxo-2,3-dihydro-1lambda6-thiophen-3-yl)-N-[(pyridin-4-yl)methyl]acetamide]
> 50 µM	O=C(Cc1cnn(-c2ccccc2)n1)N(Cc1ccncc1)C1C=CS(=O)(=O)C1 (stereo not shown) [I-406, N-(1,1-dioxo-2,3-dihydro-1lambda6-thiophen-3-yl)-2-(2-phenyl-2H-1,2,3-triazol-4-yl)-N-[(pyridin-4-yl)methyl]acetamide]
0.5 to 5 µM	CC(C)OC(C(=O)N(Cc1ccnc(C(C)(C)O)c1)C1C=CS(=O)(=O)C1)c1ccc(-c2ccc(F)c(F)c2)cc1F (stereo not shown) [I-167, N-(1,1-dioxo-2,3-dihydro-1lambda6-thiophen-3-yl)-N-{[2-(2-hydroxypropan-2-yl)pyridin-4-yl]methyl}-2-(propan-2-yloxy)-2-{3,3′,4′-trifluoro-[1,1′-biphenyl]-4-yl}acetamide]
10 to 50 µM	O=C(Cc1ccc(-n2cccc2)cc1)N(Cc1cnc2ccccc2c1)C1C=CS(=O)(=O)C1 (stereo not shown) [I-296, N-(1,1-dioxo-2,3-dihydro-1lambda6-thiophen-3-yl)-2-[4-(1H-pyrrol-1-yl)phenyl]-N-[(quinolin-3-yl)methyl]acetamide]
< 0.5 µM	CC(C(=O)N(Cc1ccnc(C(C)(C)O)c1)[C@@H]1C=CS(=O)(=O)C1)n1cc(-c2cc(F)c(F)c(F)c2)cn1 (single isomer, unassigned) [I-789]
> 50 µM	Cc1c(CC(=O)N(Cc2ccncc2)C2C=CS(=O)(=O)C2)nnn1-c1ccccc1 (stereo not shown) [I-434, N-(1,1-dioxo-2,3-dihydro-1lambda6-thiophen-3-yl)-2-(5-methyl-1-phenyl-1H-1,2,3-triazol-4-yl)-N-[(pyridin-4-yl)methyl]acetamide]
10 to 50 µM	CC(C)(O)c1cc(CN(C(=O)C2Cc3cc(-c4ccc(F)cc4)ccc3O2)C2C=CS(=O)(=O)C2)ccn1 (stereo not shown) [I-298, N-(1,1-dioxo-2,3-dihydro-1lambda6-thiophen-3-yl)-5-(4-fluorophenyl)-N-{[2-(2-hydroxypropan-2-yl)pyridin-4-yl]methyl}-2,3-dihydro-1-benzofuran-2-carboxamide]
10 to 50 µM	CC(C)(O)c1csc(CN(C(=O)Cc2ccc(S(F)(F)(F)(F)F)cc2)C2C=CS(=O)(=O)C2)n1 (stereo not shown) [I-637, N-(1,1-dioxo-2,3-dihydro-1lambda6-thiophen-3-yl)-N-{[4-(2-hydroxypropan-2-yl)-1,3-thiazol-2-yl]methyl}-2-[4-(pentafluoro-lambda6-sulfanyl)phenyl]acetamide]
< 0.5 µM	COc1cc(CN(C(=O)Cn2ncc(-c3ccc(F)c(F)c3)c2C)[C@@H]2C=CS(=O)(=O)C2)ccn1 [I-739, 2-[4-(3,4-difluorophenyl)-5-methyl-1H-pyrazol-1-yl]-N-[(3R)-1,1-dioxo-2,3-dihydro-1lambda6-thiophen-3-yl]-N-[(2-methoxypyridin-4-yl)methyl]acetamide]
> 50 µM	Cc1ccc(-c2ccc(CC(=O)N(Cc3ccncc3)C3C=CS(=O)(=O)C3)cc2)cc1 (stereo not shown) [I-470, N-(1,1-dioxo-2,3-dihydro-1lambda6-thiophen-3-yl)-2-{4′-methyl-[1,1′-biphenyl]-4-yl}-N-[(pyridin-4-yl)methyl]acetamide]
0.5 to 5 µM	CCOc1cc(CN(C(=O)Cc2ccc(-n3cccc3)cc2)C2C=CS(=O)(=O)C2)ccn1 (stereo not shown) [I-141, N-(1,1-dioxo-2,3-dihydro-1lambda6-thiophen-3-yl)-N-[(2-ethoxypyridin-4-yl)methyl]-2-[4-(1H-pyrrol-1-yl)phenyl]acetamide]
< 0.5 µM	COC(C(=O)N(Cc1ccnc(C(C)(C)O)c1)C1C=CS(=O)(=O)C1)c1ccc(-c2ccc(F)cc2)cc1F (single isomer, unassigned) [I-10, (2R*)-2-{3,4′-difluoro-[1,1′-biphenyl]-4-yl}-N-[(3R**)-1,1-dioxo-2,3-dihydro-1lambda6-thiophen-3-yl]-N-{[2-(2-hydroxypropan-2-yl)pyridin-4-yl]methyl}-2-methoxyacetamide]
0.5 to 5 µM	COc1cc(CN(C(=O)C(OCc2cnn(C)c2)c2ccc(-c3ccc(F)c(F)c3)cc2F)[C@@H]2C=CS(=O)(=O)C2)ccn1 (single isomer, unassigned) [I-742, (2R*)-N-[(3R)-1,1-dioxo-2,3-dihydro-1lambda6-thiophen-3-yl]-N-[(2-methoxypyridin-4-yl)methyl]-2-[(1-methyl-1H-pyrazol-4-yl)methoxy]-2-{3,3′,4′-trifluoro-[1,1′-biphenyl]-4-yl}acetamide]

Compound	IC50
O=C(Cc1ccc(OC2CCC2)cc1)N(Cc1ccncc1)C1C=CS(=O)(=O)C1 (stereo not shown) [I-463, 2-(4-cyclobutoxyphenyl)-N-(1,1-dioxo-2,3-dihydro-1lambda6-thiophen-3-yl)-N-[(pyridin-4-yl)methyl]acetamide]	> 50 µM
